Source: PubChem BioAssay (NCI)
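Results reflect a 48-hour exposure of cells in 96-well plates to compound at five concentrations. GI50 marks 50% less growth. TGI: concentration producing complete growth inhibition.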

Key:
Assay in all cases: growth of human tumour cells (NCI), 48 h; in the data active = GI50 below about 0.43 µM; inactive = the rest
[1] = test system: 786-0 renal
[2] = test system: A498 renal
[3] = test system: A549 NSCLC
[4] = test system: ACHN renal
[5] = test system: BT-549 breast
[6] = test system: CAKI-1 renal
[7] = test system: CCRF-CEM leukemia
[8] = test system: COLO 205 colon
[9] = test system: DU-145 prostate
[10] = test system: EKVX NSCLC
[11] = test system: HCC-2998 colon
[12] = test system: HCT-116 colon
[13] = test system: HCT-15 colon
[14] = test system: HL-60(TB) leukemia
[15] = test system: HOP-62 NSCLC
[16] = test system: HOP-92 NSCLC
[17] = test system: HS 578T breast
[18] = test system: HT29 colon
[19] = test system: IGROV1 ovarian
[20] = test system: K-562 leukemia
[21] = test system: KM12 colon
[22] = test system: LOX IMVI melanoma
[23] = test system: M14 melanoma
[24] = test system: MALME-3M melanoma
[25] = test system: MCF7 breast
[26] = test system: MDA-MB-231 breast
[27] = test system: MDA-MB-435
[28] = test system: MOLT-4 leukemia
[29] = test system: NCI-H226 lung

O=C(O)c1ccc(-c2ccc(C(=O)O)cc2I)c(I)c1
> 100 µM: TGI [1] | TGI [2] | TGI [3] | TGI [4] | TGI [5] | TGI [6] | TGI [7] | TGI [8] | TGI [9] | TGI [10] | TGI [11] | TGI [12] | TGI [13] | TGI [14] | TGI [15] | TGI [16] | TGI [17] | TGI [18] | TGI [19] | TGI [20] | TGI [21] | TGI [22] | TGI [23] | TGI [24] | TGI [25] | TGI [26] | TGI [27] | TGI [28] | TGI [29]
inactive: GI50 [1] > 100 µM | GI50 [2] > 100 µM | GI50 [3] > 100 µM | GI50 [4] > 100 µM | GI50 [5] > 100 µM | GI50 [6] > 100 µM | GI50 [7] > 100 µM | GI50 [8] > 100 µM | GI50 [9] > 100 µM | GI50 [10] > 100 µM | GI50 [11] > 100 µM | GI50 [12] > 100 µM | GI50 [13] > 100 µM | GI50 [14] > 100 µM | GI50 [15] > 100 µM | GI50 [16] > 100 µM | GI50 [17] > 100 µM | GI50 [18] > 100 µM | GI50 [19] > 100 µM | GI50 [20] > 100 µM | GI50 [21] > 100 µM | GI50 [22] > 100 µM | GI50 [23] > 100 µM | GI50 [24] > 100 µM | GI50 [25] > 100 µM | GI50 [26] > 100 µM | GI50 [27] > 100 µM | GI50 [28] > 100 µM | GI50 [29] > 100 µM
